Experimental findings from PubChem BioAssay (NCI) are described below.

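Protocol summary: plate cells (96-well), add compound at 5 concentrations, incubate 48 h, interpolate endpoints linearly. Here, GI50 denotes the concentration required for 50% inhibition of growth. Definition used: TGI = concentration required for complete inhibition of growth.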

Some test systems named below: MDA-MB-435; DLD-1 colon; DMS 273 small cell lung; HOP-18 NSCLC; DMS 114 small cell lung; M14 melanoma; IGROV1 ovarian; NCI-H23 lung; HS 578T breast; T-47D breast.
Holding throughout (test): NCI anticancer screen, dose series, 48 h

`COc1cc2c(cc1OC)C(OC)N(C)c1c-2ccc2cc3c(cc12)OCO3` (configuration not stated): the TGI with MDA-MB-435 is more than 75 µM; in the experiment on DLD-1 colon, 61.2 µM; with DMS 273 small cell lung, 14.4 µM; in the experiment on HOP-18 NSCLC, 68.5 µM; in the experiment with DMS 114 small cell lung it was 12.3 µM; with M14 melanoma it was 25.6 µM. The TGI in the experiment on IGROV1 ovarian is 3.02 µM; in the experiment on NCI-H23 lung, 6.49 µM.
In the case of `COc1ccc(C[C@@H]2NC[C@@H](O)[C@@H]2OC(C)=O)cc1`, the TGI in the experiment on MDA-MB-435 is 0.0883 µM; in the experiment on DLD-1 colon, 13.8 µM; in the experiment with HS 578T breast it was 0.169 µM; in the experiment on DMS 273 small cell lung, more than 100 µM; in the experiment with T-47D breast, 0.193 µM; with HOP-18 NSCLC, 6.35 µM. Further, the TGI is more than 100 µM in the experiment on DMS 114 small cell lung and 8.14 µM with IGROV1 ovarian. Further, the GI50 was 11.8 µM in the experiment with M14 melanoma, 0.367 µM with IGROV1 ovarian and 2.76 µM in the experiment with NCI-H23 lung.
Regarding `C[C@@H](CN1CC(=O)NC(=O)C1)N1CC(=O)NC(=O)C1`, the TGI in the experiment on MDA-MB-435 came out at 1470 µM; in the experiment with DLD-1 colon, 1090 µM; with HS 578T breast, 1810 µM; with DMS 273 small cell lung, 626 µM; in the experiment with T-47D breast, 1020 µM; in the experiment with HOP-18 NSCLC it was 1180 µM. The TGI in the experiment with DMS 114 small cell lung was 441 µM; in the experiment with M14 melanoma, 1160 µM; in the experiment with IGROV1 ovarian it was 1440 µM; in the experiment on NCI-H23 lung, 791 µM.
Consider `CC1(C)OB(O)OC1(C)C`, for which the TGI in the experiment with DLD-1 colon, with DMS 273 small cell lung, in the experiment with HOP-18 NSCLC, in the experiment on DMS 114 small cell lung, in the experiment on M14 melanoma and with IGROV1 ovarian was more than 100 µM each time. Further, the TGI in the experiment on NCI-H23 lung was more than 100 µM.
With `CC(=O)OC1CC2Oc3ccc(C)cc3C(C)(O2)C1=O` (configuration not stated), the TGI with DLD-1 colon, with DMS 273 small cell lung, in the experiment with HOP-18 NSCLC, with DMS 114 small cell lung, in the experiment on M14 melanoma and in the experiment on IGROV1 ovarian was more than 100 µM throughout. Further, in the experiment with NCI-H23 lung, the TGI is more than 100 µM.
As to `O=C(Nc1cccc(Cc2cccc(NC(=O)c3ccccc3)c2)c1)c1ccccc1`, the TGI in the experiment with DLD-1 colon, in the experiment on DMS 273 small cell lung, in the experiment with HOP-18 NSCLC, in the experiment with DMS 114 small cell lung, with M14 melanoma and in the experiment with IGROV1 ovarian was more than 100 µM in each case. This compound also yielded a TGI in the experiment with NCI-H23 lung of more than 100 µM.
For `CN(/N=C/c1cccc2cccnc12)c1ccc([N+](=O)[O-])cc1`, the TGI in the experiment on DLD-1 colon, in the experiment with DMS 273 small cell lung, in the experiment with HOP-18 NSCLC, with DMS 114 small cell lung, in the experiment on M14 melanoma and in the experiment on IGROV1 ovarian was more than 100 µM in each case. This compound yielded a TGI with NCI-H23 lung of more than 100 µM.
